Values quoted from earlier work in patent US20110244057A1, “COMBINATION THERAPIES WITH TOPIRAMATE FOR SEIZURES, RESTLESS LEGS SYNDROME, AND OTHER NEUROLOGICAL CONDITIONS” (priority 2008, published 2011).

Tests used:
[1] = doses of 100 mg/day and 200 mg/day; Romigi et al., J. Neurology, 2007
kindled seizures = conditions: rats; Wauquier and Zhou, Epilepsy Res. 24:73-77, 1996

Compound: CC1(C)O[C@@H]2[C@@H](CO[C@@]3(COS(N)(=O)=O)OC(C)(C)O[C@@H]23)O1 [topiramate, 2,3:4,5-bis-O-(1-methylethyldiene)-β-D-fructopyranose sulfamate]
- induction of Restless Leg Syndrome (RLS) [1]: cause RLS
- effect on kindled seizures (kindled seizures): blocks kindled seizures
